≈ marks a conversion by molar mass, not a printed value.

What all share (experiment): ≥ marks a high value that may be exact or a test limit, other limits are often not marked, values filed in µg/mL are converted to µM
In experiment [1] the test system is Micrococcus luteus A270.
In experiment [2] the test system is Enterobacter cloacae beta-12.
Experiment [3] has as its system Staphylococcus aureus ATCC 29213.
Experiment [4] has as its system Candida tropicalis IOC 4560.
Experiment [5] concerns Candida albicans MDM8.
Experiment [6] deals with Staphylococcus epidermidis ATCC 12228.
Experiment [7] concerns Bacillus megaterium ATCC 10778.
For experiment [8], the system named is Escherichia coli SBS 363.
Experiment [9] has as its system Serratia marcescens ATCC 4112.
The subject of experiment [10] is Escherichia coli JJ2489.
Experiment [11] has as its system Escherichia coli JW2778 ΔygdD.
In experiment [12] the test system is Escherichia coli JW0368 ΔsbmA.
In experiment [13] the test system is Salmonella typhimurium SL1344.
Experiment [14] concerns Escherichia coli JW0013.
The subject of experiment [15] is Escherichia coli BW25113.
For experiment [16], the system named is Escherichia coli MC1041.
Experiment [17] concerns Salmonella enterica subsp. enterica serovar Enteritidis MH91989.
The subject of experiment [18] is Escherichia coli J2210.
Experiment [19] has as its system Cryptococcus neoformans ATCC 32045.
Experiment [20] deals with Pseudomonas aeruginosa ATCC 10145.
Experiment [21] deals with Candida albicans ATCC 10231.
For experiment [22], the system named is Escherichia coli ATCC 2592.
In experiment [23] the test system is Staphylococcus aureus ATCC 33591.
Experiment [24] concerns Pseudomonas aeruginosa H1001.

`CC(C)C[C@H](NC(=O)[C@H](C)NC(=O)[C@H](CCCCN)NC(=O)[C@H](CC(C)C)NC(=O)[C@@H](N)Cc1ccccc1)C(=O)N[C@@H](Cc1c[nH]c2ccccc12)C(=O)N[C@@H](CCCCN)C(=O)N[C@H](C(=O)N[C@@H](C)C(=O)N[C@@H](CCCCN)C(=O)N[C@@H](CCCCN)C(=O)N[C@H](C(=O)N[C@@H](Cc1ccccc1)C(N)=O)C(C)C)C(C)C` [FLKALWKVAKKVF]: the MIC in [1] was 0.4 µM (≈ 0.631 µg/mL); in experiment [2], 3.1 µM (≈ 4.89 µg/mL); in experiment [3] it was 0.8 µM (≈ 1.26 µg/mL); in experiment [4], 0.8 µM (≈ 1.26 µg/mL); in [5], 1.6 µM (≈ 2.52 µg/mL); in experiment [6], 3.1 µM (≈ 4.89 µg/mL). The MIC was found to be 0.4 µM (≈ 0.631 µg/mL) in experiment [7], 1.6 µM (≈ 2.52 µg/mL) in experiment [8] and 0.1 µM (≈ 0.158 µg/mL) in experiment [9].

On to `CC(C)C[C@H](NC(=O)[C@H](CCCN=C(N)N)NC(=O)[C@@H]1CCCN1C(=O)[C@H](CCCN=C(N)N)NC(=O)[C@@H]1CCCN1C(=O)[C@@H]1CCCN1C(=O)[C@H](CCCN=C(N)N)NC(=O)[C@@H]1CCCN1C(=O)[C@H](CCC(N)=O)NC(=O)[C@@H]1CCCN1C(=O)[C@H](CCCCN)NC(=O)[C@H](Cc1ccc(O)cc1)NC(=O)[C@@H](NC(=O)[C@@H]1CCCN1C(=O)[C@H](CCCCN)NC(=O)[C@H](CC(N)=O)NC(=O)[C@H](CC(N)=O)NC(=O)CN)C(C)C)C(=O)O` [GNNKPVYKPQPRPPRPRL], for which the MIC was 0.252 µM (≈ 0.533 µg/mL) in [10]; 0.192 µM (≈ 0.406 µg/mL) in experiment [11]; 0.192 µM (≈ 0.406 µg/mL) in [12]; 0.192 µM (≈ 0.406 µg/mL) in [13]; 0.096 µM (≈ 0.203 µg/mL) in [14]; 0.096 µM (≈ 0.203 µg/mL) in experiment [15]. Also, the MIC in experiment [16] worked out at 0.192 µM (≈ 0.406 µg/mL); in experiment [17] it was 0.133 µM (≈ 0.281 µg/mL); in experiment [18], 0.267 µM (≈ 0.565 µg/mL).

In the case of `CC(C)C[C@H](NC(=O)[C@H](CCCN=C(N)N)NC(=O)[C@@H]1CCCN1C(=O)[C@H](CCCN=C(N)N)NC(=O)[C@@H]1CCCN1C(=O)[C@@H]1CCCN1C(=O)[C@H](CCCN=C(N)N)NC(=O)[C@@H]1CCCN1C(=O)[C@H](CCC(N)=O)NC(=O)[C@@H]1CCCN1C(=O)[C@H](CCCCN)NC(=O)[C@H](Cc1ccc(O)cc1)NC(=O)[C@@H](NC(=O)[C@@H]1CCCN1C(=O)[C@H](CCCN=C(N)N)NC(=O)[C@H](CC(N)=O)NC(=O)[C@H](CC(N)=O)NC(=O)CN)C(C)C)C(=O)O` [GNNRPVYKPQPRPPRPRL], the MIC worked out at 0.133 µM (≈ 0.285 µg/mL) in experiment [10]; 0.133 µM (≈ 0.285 µg/mL) in [11]; 0.096 µM (≈ 0.206 µg/mL) in [12]; 0.192 µM (≈ 0.411 µg/mL) in experiment [13]; 0.062 µM (≈ 0.133 µg/mL) in experiment [14]; 0.067 µM (≈ 0.144 µg/mL) in [15]. The MIC in [16] is 0.133 µM (≈ 0.285 µg/mL); in experiment [17], 0.096 µM (≈ 0.206 µg/mL); in [18], 0.252 µM (≈ 0.54 µg/mL).

As for `C[C@H](NC(=O)[C@H](Cc1ccccc1)NC(=O)[C@H](CCCN=C(N)N)NC(=O)[C@H](CCCN=C(N)N)NC(=O)[C@H](C)NC(=O)[C@H](Cc1ccccc1)NC(=O)[C@H](CCCN=C(N)N)NC(=O)[C@H](CCCN=C(N)N)NC(=O)[C@H](C)NC(=O)[C@H](Cc1ccccc1)NC(=O)[C@H](CCCN=C(N)N)NC(=O)[C@H](CCCN=C(N)N)NC(=O)[C@H](C)NC(=O)[C@H](Cc1ccccc1)NC(=O)[C@H](CCCN=C(N)N)NC(=O)[C@H](CCCN=C(N)N)NC(=O)[C@H](C)NC(=O)[C@H](Cc1ccccc1)NC(=O)[C@H](CCCN=C(N)N)NC(=O)[C@H](CCCN=C(N)N)NC(=O)[C@H](C)NC(=O)[C@H](Cc1ccccc1)NC(=O)[C@H](CCCN=C(N)N)NC(=O)[C@H](CCCN=C(N)N)NC(=O)[C@H](C)NC(=O)[C@H](Cc1ccccc1)NC(=O)[C@@H](N)CCCN=C(N)N)C(=O)N[C@@H](CCCN=C(N)N)C(=O)O` [RFARRFARRFARRFARRFARRFARRFAR], the MIC in experiment [19] is 23.6 µM (≈ 88 µg/mL); in experiment [20], 16.6 µM (≈ 62 µg/mL); in [21], 94.7 µM (≈ 354 µg/mL); in [22], 11.9 µM (≈ 44.5 µg/mL); in experiment [23], at least 47.4 µM.

Compound `CC[C@H](C)[C@H](NC(=O)[C@H](CCCN=C(N)N)NC(=O)[C@H](CCCN=C(N)N)NC(=O)[C@@H]1CCCN1C(=O)[C@@H]1CCCN1C(=O)[C@H](CCCN=C(N)N)NC(=O)[C@@H]1CCCN1C(=O)[C@H](CCCN=C(N)N)NC(=O)[C@@H]1CCCN1C(=O)[C@H](CC(C)C)NC(=O)[C@H](Cc1ccc(O)cc1)NC(=O)[C@@H]1CCCN1C(=O)[C@@H]1CCCN1C(=O)[C@H](CCCCN)NC(=O)[C@H](CC(=O)O)NC(=O)[C@@H](N)C(C)C)C(=O)N[C@@H](Cc1ccc(O)cc1)C(=O)N[C@@H](CS)C(=O)N[C@@H](CCCN=C(N)N)C(=O)NCC(=O)O` [VDKPPYLPRPRPPRRIYCRG] registered an MIC in experiment [24] of 0.0575 µM (≈ 0.14 µg/mL).

`CC[C@H](C)[C@H](NC(=O)[C@H](CCCN=C(N)N)NC(=O)[C@H](CCCN=C(N)N)NC(=O)[C@@H]1CCCN1C(=O)[C@@H]1CCCN1C(=O)[C@H](CCCN=C(N)N)NC(=O)[C@@H]1CCCN1C(=O)[C@H](CCCN=C(N)N)NC(=O)[C@@H]1CCCN1C(=O)[C@H](CC(C)C)NC(=O)[C@H](Cc1ccc(O)cc1)NC(=O)[C@@H]1CCCN1C(=O)[C@@H]1CCCN1C(=O)[C@H](CCCCN)NC(=O)[C@H](CC(=O)O)NC(=O)[C@@H](N)C(C)C)C(=O)N[C@@H](Cc1ccc(O)cc1)C(=O)N[C@@H](CC(N)=O)C(=O)N[C@@H](CCCCN)C(=O)NCC(=O)O` [VDKPPYLPRPRPPRRIYNKG] showed an MIC in [24] of 0.107 µM (≈ 0.26 µg/mL). Compared with the last compound, the MIC is about 1.9-fold higher.

The compound `CC[C@H](C)[C@H](NC(=O)[C@H](CCCN=C(N)N)NC(=O)[C@H](CCCN=C(N)N)NC(=O)[C@@H]1CCCN1C(=O)[C@H](CCCN=C(N)N)NC(=O)[C@H](CCCN=C(N)N)NC(=O)[C@@H]1CCCN1C(=O)[C@H](CCCN=C(N)N)NC(=O)[C@@H]1CCCN1C(=O)[C@H](CC(C)C)NC(=O)[C@H](Cc1ccc(O)cc1)NC(=O)[C@@H]1CCCN1C(=O)[C@@H]1CCCN1C(=O)[C@H](CCCCN)NC(=O)[C@H](CC(=O)O)NC(=O)[C@@H](N)C(C)C)C(=O)N[C@@H](Cc1ccc(O)cc1)C(=O)N[C@@H](CC(N)=O)C(=O)N[C@@H](CCCN=C(N)N)C(=O)NCC(=O)O` [VDKPPYLPRPRRPRRIYNRG] registered an MIC in [24] of 0.0878 µM (≈ 0.22 µg/mL).

The MIC is the smallest concentration in the dilution series that meets the test's criterion for growth inhibition.

The values are drawn from DBAASP.
